The values below come from ChEMBL document CHEMBL1150662, “A new digalactosyl diacylglycerol from a cultured marine dinoflagellate Heterocapsa circularisquama” (J Nat Prod, 2002).

Each structure is given as a SMILES string.

A short description of the data set: Cytotoxicity against oysters heart cells at 0.5 ug/ml. The note with it: ostreidae. The class given is cell-based.
As for `CC/C=C\C/C=C\C/C=C\C/C=C\C/C=C\CC(=O)OC[C@H](CO[C@@H]1O[C@H](CO)[C@H](O)[C@H](O)[C@H]1O)OC(=O)C/C=C\C/C=C\C/C=C\C/C=C\C/C=C\CC`, the Activity entry was “Toxic”.

For the compound `CC/C=C\C/C=C\C/C=C\C/C=C\C/C=C\CC(=O)OC[C@H](CO[C@@H]1O[C@H](CO)[C@H](O)[C@H](O)C1O)OC(=O)CCCC/C=C\C/C=C\C/C=C\C/C=C\CC` (single isomer, unassigned), the Activity entry is given as “Toxic”. With `CC/C=C\C/C=C\C/C=C\C/C=C\C/C=C\CC(=O)OC[C@H](CO[C@@H]1O[C@H](CO[C@H]2O[C@H](CO)[C@H](O)[C@H](O)[C@H]2O)[C@H](O)[C@H](O)[C@H]1O)OC(=O)CCCC/C=C\C/C=C\C/C=C\C/C=C\CC` the entry was “Toxic”.
